Assay results: ChEMBL document CHEMBL1148079, “Zarzissine, a new cytotoxic guanidine alkaloid from the Mediterranean sponge Anchinoe paupertas” (J Nat Prod, 1994)
≈ marks a conversion by molar mass, not a printed value.

Columns and labels:
P388 = experiment: Cytotoxicity against mouse P388 cells after 72 hrs by MTT assay; assay type: functional, cell-based; settings: P388, 72 h
Staphylococcus aureus = experiment: Antimicrobial activity against Staphylococcus aureus at 100 ug after 18 hrs by paper disk agar diffusion method; assay type: functional; settings: read-out: IZ
[1] = Cytotoxicity against human NSCLC-N6 cells after 72 hrs by MTT assay; assay type: functional, cell-based; settings: NSCLC-N6, 72 h
KB = experiment: Cytotoxicity against human KB cells after 72 hrs by MTT assay; assay type: functional, cell-based
Candida tropicalis = experiment: Antimicrobial activity against Candida tropicalis at 100 ug after 18 hrs by paper disk agar diffusion method; assay type: functional; settings: read-out: IZ
Candida albicans = experiment: Antimicrobial activity against Candida albicans at 100 ug after 18 hrs by paper disk agar diffusion method; assay type: functional; settings: read-out: IZ

Row | SMILES | IC50 (P388) [µg/mL] | zone of inhibition at 100 µg/disc (Staphylococcus aureus) [mm] | IC50 [1] [µg/mL] | IC50 (KB) [µg/mL] | zone of inhibition at 100 µg/disc (Candida tropicalis) [mm] | zone of inhibition at 100 µg/disc (Candida albicans) [mm]
1 | Nc1nc2cnncc2[nH]1 | 12 (≈ 88.8 µM) | 12 | 10 (≈ 74 µM) | 5 (≈ 37 µM) | 11 | 10
2 | O=Cc1ccc(O)cc1 [4-HYDROXYBENZALDEHYDE] | – | 8 | – | – | 7 | 7
